Results taken from patent US20030004172A1, “Fused pyrimidinone matrix metalloproteinase inhibitors” (priority 2001, published 2003).

Target: MMP-13CD (catalytic domain of collagenase-3) (Homo sapiens, UniProt P45452)
Assay: Thiopeptolide substrate hydrolysis inhibition assay, MMP-13CD
Format: biochemical
Details: Table I; thiopeptolide substrate, HEPES pH 7.0, 22° C.; read-out: MMP-13CD IC50
From the text: Thiopeptolide substrates show virtually no decomposition or hydrolysis at or below neutral pH in the absence of a matrix metalloproteinase enzyme.

SMILES	IC50 [µM]
COc1cccc(CNC(=O)c2cc3c(=O)n(CCCCCC#N)c(=O)n(C)c3s2)c1 [Example 283]	1.7
C/C=C/Cn1c(=O)c2cc(C(=O)NCc3cccc(OC)c3)sc2n(C)c1=O [Example 284]	1.5
COc1cccc(CNC(=O)c2cc3c(=O)n(CCc4cccc5ccccc45)c(=O)n(C)c3s2)c1 [Example 285]	30
CC/C=C/Cn1c(=O)c2cc(C(=O)NCc3cccc(OC)c3)sc2n(C)c1=O [Example 286]	0.27
COc1cccc(CNC(=O)c2cc3c(=O)n(CCSc4ccccc4)c(=O)n(C)c3s2)c1 [Example 287]	1.9
CCC(C)n1c(=O)c2cc(C(=O)NCc3cccc(OC)c3)sc2n(C)c1=O (stereo not drawn) [Example 288]	4.2
C=C(C)Cn1c(=O)c2cc(C(=O)NCc3cccc(OC)c3)sc2n(C)c1=O [Example 289]	2.7
CCC(CC)n1c(=O)c2cc(C(=O)NCc3cccc(OC)c3)sc2n(C)c1=O [Example 290]	15
CCC#CCn1c(=O)c2cc(C(=O)NCc3cccc(OC)c3)sc2n(C)c1=O [Example 291]	0.12
COc1cccc(CNC(=O)c2cc3c(=O)n(CC=C(C)C)c(=O)n(C)c3s2)c1 [Example 292]	10
COc1cccc(CNC(=O)c2cc3c(=O)n(CCS(=O)(=O)c4ccc(C)cc4)c(=O)n(C)c3s2)c1 [Example 293]	> 100
COc1cccc(CNC(=O)c2cc3c(=O)n(CCNC(=O)c4ccccc4)c(=O)n(C)c3s2)c1 [Example 294]	> 100
COc1cccc(CNC(=O)c2cc3c(=O)n(CCOc4ccc(Br)cc4)c(=O)n(C)c3s2)c1 [Example 295]	0.23
COc1cccc(CNC(=O)c2cc3c(=O)n(Cc4ccc5nonc5c4)c(=O)n(C)c3s2)c1 [Example 296]	0.0505
COc1cccc(CNC(=O)c2cc3c(=O)n(CCOc4ccccc4)c(=O)n(C)c3s2)c1 [Example 297]	0.057
COC(=O)Nc1cc(Cn2c(=O)c3cc(C(=O)NCc4cccc(OC)c4)sc3n(C)c2=O)on1 [Example 298]	0.49
COc1cccc(CNC(=O)c2cc3c(=O)n(CC(=O)C(CC(=O)OC(C)(C)C)NC(=O)OCc4ccccc4)c(=O)n(C)c3s2)c1 (stereo not drawn) [Example 299]	30
COC(=O)c1cc2c(=O)n(Cc3ccccc3)c(=O)n(C)c2s1 [Example 300, 3-Benzyl-1-methyl-2,4-dioxo-1,2,3,4-tetrahydro-thieno[2,3-d]pyrimidine-6-carboxylic acid methyl ester]	> 100
Cc1c(C(=O)OCc2ccccc2)sc2[nH]c(=O)n(Cc3ccc(Br)cc3)c(=O)c12 [Example 301, 3-(4-Bromo-benzyl)-5-methyl-2,4-dioxo-1,2,3,4-tetrahydro-thieno[2,3-d]pyrimidine-6-carboxylic acid benzyl ester]	> 100
Cc1c(C(=O)OCc2ccccc2)sc2[nH]c(=O)n(Cc3ccc(F)cc3)c(=O)c12 [Example 302, 3-(4-Fluoro-benzyl)-5-methyl-2,4-dioxo-1,2,3,4-tetrahydro-thieno[2,3-d]pyrimidine-6-carboxylic acid benzyl ester]	30
Cn1c(=O)n(Cc2ccccc2)c(=O)c2cc(C(=O)OCc3cc4ccccc4s3)sc21 [Example 304, 3-Benzyl-1-methyl-2,4-dioxo-1,2,3,4-tetrahydro-thieno[2,3-d]pyrimidine-6-carboxylic acid benzo[b]thiophen-2-ylmethyl ester]	3.1
Cn1ccc2cc(COC(=O)c3cc4c(=O)n(Cc5ccccc5)c(=O)n(C)c4s3)ccc21 [Example 305, 3-Benzyl-1-methyl-2,4-dioxo-1,2,3,4-tetrahydro-thieno[2,3-d]pyrimidine-6-carboxylic acid 1-methyl-1H-indol-5-ylmethyl ester]	46.7
Cn1c(=O)n(Cc2ccc3c(c2)OCO3)c(=O)c2cc(C(=O)OCc3ccccc3)sc21 [Example 307, 3-1,3-Benzodioxol-5-ylmethyl-1-methyl-2,4-dioxo-1,2,3,4-tetrahydro-thieno[2,3-d]pyrimidine-6-carboxylic acid benzyl ester]	0.0052
Cn1c(=O)n(Cc2ccncc2)c(=O)c2cc(C(=O)OCc3ccccc3)sc21 [Example 308, 1-Methyl-2,4-dioxo-3-pyridin-4-ylmethyl-1,2,3,4-tetrahydro-thieno[2,3-d]pyrimidine-6-carboxylic acid benzyl ester]	0.00715

Other lines, results leading:

IC50 [µM]	SMILES
0.056	Cn1c(=O)n(Cc2ccc(C(C)(C)C)cc2)c(=O)c2cc(C(=O)OCc3ccccc3)sc21 [Example 309, 3-(4-tert-Butyl-benzyl)-1-methyl-2,4-dioxo-1,2,3,4-tetrahydro-thieno[2,3-d]pyrimidine-6-carboxylic acid benzyl ester]
30	Cc1c(C(=O)OCc2ccccc2)sc2[nH]c(=O)n(Cc3ccc(Cl)c(Cl)c3)c(=O)c12 [Example 310, 3-(3,4-Dichloro-benzyl)-5-methyl-2,4-dioxo-1,2,3,4-tetrahydro-thieno[2,3-d]pyrimidine-6-carboxylic acid benzyl ester]
0.0845	Cn1c(=O)n(Cc2ccc(OC(F)(F)F)cc2)c(=O)c2cc(C(=O)OCc3ccccc3)sc21 [Example 311, 1-Methyl-2,4-dioxo-3-(4-trifluoromethoxy-benzyl)-1,2,3,4-tetrahydro-thieno[2,3-d]pyrimidine-6-carboxylic acid benzyl ester]
0.0275	Cn1c(=O)n(Cc2ccc3ccccc3c2)c(=O)c2cc(C(=O)OCc3ccccc3)sc21 [Example 312, 1-Methyl-3-naphthalen-2-ylmethyl-2,4-dioxo-1,2,3,4-tetrahydro-thieno[2,3-d]pyrimidine-6-carboxylic acid benzyl ester]
0.00645	Cn1c(=O)n(Cc2ccc(C#N)cc2)c(=O)c2cc(C(=O)OCc3ccccc3)sc21 [Example 313, 3-(4-Cyano-benzyl)-1-methyl-2,4-dioxo-1,2,3,4-tetrahydro-thieno[2,3-d]pyrimidine-6-carboxylic acid benzyl ester]
0.0185	Cn1c(=O)n(Cc2ccccc2)c(=O)c2cc(C(=O)OCc3ccc4occc4c3)sc21 [Example 314, 3-Benzyl-1-methyl-2,4-dioxo-1,2,3,4-tetrahydro-thieno[2,3-d]pyrimidine-6-carboxylic acid benzofuran-5-ylmethyl ester]
0.0205	COc1cc(Cn2c(=O)c3cc(C(=O)OCc4ccccc4)sc3n(C)c2=O)cc(OC)c1 [Example 315, 3-(3,5-Dimethoxy-benzyl)-1-methyl-2,4-dioxo-1,2,3,4-tetrahydro-thieno[2,3-d]pyrimidine-6-carboxylic acid benzyl ester]
> 100	COc1ccc(CCNC(=O)c2cc3c(=O)n(Cc4ccccc4)c(=O)n(C)c3s2)cc1OC [Example 320, 3-Benzyl-1-methyl-2,4-dioxo-1,2,3,4-tetrahydro-thieno[2,3-d]pyrimidine-6-carboxylic acid[2-(3,4-dimethoxy-phenyl)-ethyl]-amide]
> 100	Cn1c(=O)n(Cc2ccccc2)c(=O)c2cc(C(=O)NCc3ccc(N)cc3)sc21 [Example 321, 3-Benzyl-1-methyl-2,4-dioxo-1,2,3,4-tetrahydro-thieno[2,3-d]pyrimidine-6-carboxylic acid 4-amino-benzylamide]
> 100	Cn1c(=O)n(Cc2ccccc2)c(=O)c2cc(C(=O)NCCc3ccc(Cl)cc3)sc21 [Example 322, 3-Benzyl-1-methyl-2,4-dioxo-1,2,3,4-tetrahydro-thieno[2,3-d]pyrimidine-6-carboxylic acid[2-(4-chloro-phenyl)-ethyl]-amide]
> 100	Cn1c(=O)n(Cc2ccccc2)c(=O)c2cc(C(=O)NCc3ccccc3-c3ccccc3)sc21 [Example 323, 3-Benzyl-1-methyl-2,4-dioxo-1,2,3,4-tetrahydro-thieno[2,3-d]pyrimidine-6-carboxylic acid (biphenyl-2-ylmethyl)-amide]
> 100	COc1ccc(CNC(=O)c2cc3c(=O)n(Cc4ccccc4)c(=O)n(C)c3s2)cc1OC [Example 324, 3-Benzyl-1-methyl-2,4-dioxo-1,2,3,4-tetrahydro-thieno[2,3-d]pyrimidine-6-carboxylic acid 3,4-dimethoxy-benzylamide]
> 100	Cn1c(=O)n(Cc2ccccc2)c(=O)c2cc(C(=O)NCCc3ccncc3)sc21 [Example 325, 3-Benzyl-1-methyl-2,4-dioxo-1,2,3,4-tetrahydro-thieno[2,3-d]pyrimidine-6-carboxylic acid (2-pyridin-4-yl-ethyl)-amide]
2.8	CCOc1cccc(CCNC(=O)c2cc3c(=O)n(Cc4ccccc4)c(=O)n(C)c3s2)c1 [Example 327, 3-Benzyl-1-methyl-2,4-dioxo-1,2,3,4-tetrahydro-thieno[2,3-d]pyrimidine-6-carboxylic acid[2-(3-ethoxy-phenyl)-ethyl]-amide]
2.7	Cn1c(=O)n(Cc2ccccc2)c(=O)c2cc(C(=O)NCc3ccc(F)c(Cl)c3)sc21 [Example 328, 3-Benzyl-1-methyl-2,4-dioxo-1,2,3,4-tetrahydro-thieno[2,3-d]pyrimidine-6-carboxylic acid 3-chloro-4-fluoro-benzylamide]
30	Cn1c(=O)n(Cc2ccccc2)c(=O)c2cc(C(=O)NCc3ccc(Cl)cc3Cl)sc21 [Example 329, 3-Benzyl-1-methyl-2,4-dioxo-1,2,3,4-tetrahydro-thieno[2,3-d]pyrimidine-6-carboxylic acid 2,4-dichloro-benzylamide]
> 100	CC(CNC(=O)c1cc2c(=O)n(Cc3ccccc3)c(=O)n(C)c2s1)c1ccccc1 (stereo not drawn) [Example 330, 3-Benzyl-1-methyl-2,4-dioxo-1,2,3,4-tetrahydro-thieno[2,3-d]pyrimidine-6-carboxylic acid (2-phenyl-propyl)-amide]
> 100	COc1cc(CNC(=O)c2cc3c(=O)n(Cc4ccccc4)c(=O)n(C)c3s2)cc(OC)c1OC [Example 331, 3-Benzyl-1-methyl-2,4-dioxo-1,2,3,4-tetrahydro-thieno[2,3-d]pyrimidine-6-carboxylic acid 3,4,5-trimethoxy-benzylamide]
